# Test results taken from US20240382629A1, “HETEROBIVALENT AND HOMOBIVALENT AGENTS TARGETING FIBROBLAST ACTIVATION PROTEIN ALPHA AND/OR PROSTATE-SPECIFIC MEMBRANE ANTIGEN” (The Johns Hopkins University, priority 2021, published 2024).
# Where “and” joins values, the source holds several entries; their conditions need not be identical. Equal values may be shown once.
# Experiment: Biodistribution of [^18F]JHU1221823 with cold FAPI-04 blocker
# Format: in vivo, mouse
# Conditions: for % ID/g Bladder / % ID/g Blood / % ID/g Brain / % ID/g Fat / % ID/g Femur / % ID/g Heart / % ID/g Kidney / % ID/g Large intestine / % ID/g Liver / % ID/g Lung / % ID/g Muscle / % ID/g Pancreas / % ID/g Salivary gland / % ID/g Small intestine / % ID/g Spleen / % ID/g Stomach / % ID/g Tumor: single mouse
smiles,measurement,setting,value
N#C[C@@H]1CCCN1C(=O)CNC(=O)c1ccnc2ccc(OCCCNC(=O)CCOCCOCCOCCOCCNC(=O)[C@H](CCCCNC(=O)c3ccc([18F])nc3)NC(=O)CN3CCN(CC(=O)O)CCN(CC(=O)O)CCN(CC(=O)O)CC3)cc12 [[^18F]JHU1221823],% ID/g Mean Bladder,30 min,2.49 % ID/g
same,% ID/g Bladder,30 min,1.53 % ID/g and 3.45 % ID/g
same,% ID/g Mean Bladder,60 min,5.51 % ID/g
same,% ID/g Bladder,60 min,3.64 % ID/g and 7.58 % ID/g
same,% ID/g Mean Bladder,"+ Blocker Cold FAPI-04, 60 min",2.33 % ID/g
same,% ID/g Bladder,"+ Blocker Cold FAPI-04, 60 min",2.62 % ID/g and 2.04 % ID/g
same,% ID/g Mean Blood,30 min,10.81 % ID/g
same,% ID/g Blood,30 min,11.89 % ID/g and 9.72 % ID/g
same,% ID/g Mean Blood,60 min,10.03 % ID/g
same,% ID/g Blood,60 min,9.50 % ID/g and 10.76 % ID/g
same,% ID/g Mean Blood,"+ Blocker Cold FAPI-04, 60 min",0.25 % ID/g
same,% ID/g Blood,"+ Blocker Cold FAPI-04, 60 min",0.22 % ID/g and 0.28 % ID/g
same,% ID/g Mean Brain,30 min,0.29 % ID/g
same,% ID/g Brain,30 min,0.26 % ID/g and 0.31 % ID/g
same,% ID/g Mean Brain,60 min,0.45 % ID/g
same,% ID/g Brain,60 min,0.40 % ID/g and 0.50 % ID/g
same,% ID/g Mean Brain,"+ Blocker Cold FAPI-04, 60 min",0.09 % ID/g
same,% ID/g Brain,"+ Blocker Cold FAPI-04, 60 min",0.06 % ID/g and 0.11 % ID/g
same,% ID/g Mean Fat,30 min,0.42 % ID/g
same,% ID/g Fat,30 min,0.41 % ID/g and 0.43 % ID/g
same,% ID/g Mean Fat,60 min,0.56 % ID/g
same,% ID/g Fat,60 min,0.53 % ID/g and 0.58 % ID/g
same,% ID/g Mean Fat,"+ Blocker Cold FAPI-04, 60 min",0.21 % ID/g
same,% ID/g Fat,"+ Blocker Cold FAPI-04, 60 min",0.15 % ID/g and 0.27 % ID/g
same,% ID/g Mean Femur,30 min,3.50 % ID/g
same,% ID/g Femur,30 min,3.95 % ID/g and 3.45 % ID/g
same,% ID/g Mean Femur,60 min,3.54 % ID/g
same,% ID/g Femur,60 min,3.21 % ID/g and 3.87 % ID/g
same,% ID/g Mean Femur,"+ Blocker Cold FAPI-04, 60 min",1.78 % ID/g
same,% ID/g Femur,"+ Blocker Cold FAPI-04, 60 min",0.98 % ID/g and 2.58 % ID/g
same,% ID/g Mean Heart,30 min,5.01 % ID/g
same,% ID/g Heart,30 min,5.25 % ID/g and 4.76 % ID/g
same,% ID/g Mean Heart,60 min,4.52 % ID/g
same,% ID/g Heart,60 min,4.67 % ID/g and 4.58 % ID/g
same,% ID/g Mean Heart,"+ Blocker Cold FAPI-04, 60 min",0.28 % ID/g
same,% ID/g Heart,"+ Blocker Cold FAPI-04, 60 min",0.22 % ID/g and 0.33 % ID/g
same,% ID/g Mean Kidney,30 min,3.17 % ID/g
same,% ID/g Kidney,30 min,3.37 % ID/g and 2.96 % ID/g
same,% ID/g Mean Kidney,60 min,2.75 % ID/g
same,% ID/g Kidney,60 min,2.76 % ID/g and 2.75 % ID/g
same,% ID/g Mean Kidney,"+ Blocker Cold FAPI-04, 60 min",1.77 % ID/g
same,% ID/g Kidney,"+ Blocker Cold FAPI-04, 60 min",1.85 % ID/g and 1.69 % ID/g
same,% ID/g Mean Large intestine,30 min,2.14 % ID/g
same,% ID/g Large intestine,30 min,1.61 % ID/g and 2.67 % ID/g
same,% ID/g Mean Large intestine,60 min,5.58 % ID/g
same,% ID/g Large intestine,60 min,1.70 % ID/g and 5.45 % ID/g
same,% ID/g Mean Large intestine,"+ Blocker Cold FAPI-04, 60 min",0.47 % ID/g
same,% ID/g Large intestine,"+ Blocker Cold FAPI-04, 60 min",0.41 % ID/g and 0.52 % ID/g
same,% ID/g Mean Liver,30 min,2.44 % ID/g
same,% ID/g Liver,30 min,2.58 % ID/g and 2.30 % ID/g
same,% ID/g Mean Liver,60 min,2.62 % ID/g
same,% ID/g Liver,60 min,2.49 % ID/g and 2.75 % ID/g
same,% ID/g Mean Liver,"+ Blocker Cold FAPI-04, 60 min",0.44 % ID/g
same,% ID/g Liver,"+ Blocker Cold FAPI-04, 60 min",0.35 % ID/g and 0.51 % ID/g
same,% ID/g Mean Lung,30 min,6.38 % ID/g
same,% ID/g Lung,30 min,6.92 % ID/g and 5.83 % ID/g
same,% ID/g Mean Lung,60 min,6.05 % ID/g
same,% ID/g Lung,60 min,5.36 % ID/g and 6.75 % ID/g
same,% ID/g Mean Lung,"+ Blocker Cold FAPI-04, 60 min",0.72 % ID/g
same,% ID/g Lung,"+ Blocker Cold FAPI-04, 60 min",0.54 % ID/g and 0.89 % ID/g
same,% ID/g Mean Muscle,30 min,1.73 % ID/g
same,% ID/g Muscle,30 min,1.74 % ID/g and 1.71 % ID/g
same,% ID/g Mean Muscle,60 min,1.75 % ID/g
same,% ID/g Muscle,60 min,1.76 % ID/g and 1.75 % ID/g
same,% ID/g Mean Muscle,"+ Blocker Cold FAPI-04, 60 min",0.48 % ID/g
same,% ID/g Muscle,"+ Blocker Cold FAPI-04, 60 min",0.25 % ID/g and 0.61 % ID/g
same,% ID/g Mean Pancreas,30 min,3.13 % ID/g
same,% ID/g Pancreas,30 min,3.58 % ID/g and 2.88 % ID/g
same,% ID/g Mean Pancreas,60 min,3.70 % ID/g
same,% ID/g Pancreas,60 min,5.44 % ID/g and 3.95 % ID/g
same,% ID/g Mean Pancreas,"+ Blocker Cold FAPI-04, 60 min",0.37 % ID/g
same,% ID/g Pancreas,"+ Blocker Cold FAPI-04, 60 min",0.27 % ID/g and 0.46 % ID/g
same,% ID/g Mean Salivary gland,30 min,8.51 % ID/g
same,% ID/g Salivary gland,30 min,7.35 % ID/g and 9.57 % ID/g
same,% ID/g Mean Salivary gland,60 min,8.97 % ID/g
same,% ID/g Salivary gland,60 min,9.14 % ID/g and 8.79 % ID/g
same,% ID/g Mean Salivary gland,"+ Blocker Cold FAPI-04, 60 min",0.42 % ID/g
same,% ID/g Salivary gland,"+ Blocker Cold FAPI-04, 60 min",0.37 % ID/g and 0.48 % ID/g
same,% ID/g Mean Small intestine,30 min,2.78 % ID/g
same,% ID/g Small intestine,30 min,3.08 % ID/g and 2.48 % ID/g
same,% ID/g Mean Small intestine,60 min,5.18 % ID/g
same,% ID/g Small intestine,60 min,8.18 % ID/g and 3.18 % ID/g
same,% ID/g Mean Small intestine,"+ Blocker Cold FAPI-04, 60 min",0.99 % ID/g
same,% ID/g Small intestine,"+ Blocker Cold FAPI-04, 60 min",0.91 % ID/g and 1.06 % ID/g
same,% ID/g Mean Spleen,30 min,2.08 % ID/g
same,% ID/g Spleen,30 min,2.08 % ID/g and 2.12 % ID/g
same,% ID/g Mean Spleen,60 min,2.35 % ID/g
same,% ID/g Spleen,60 min,2.25 % ID/g and 2.45 % ID/g
same,% ID/g Mean Spleen,"+ Blocker Cold FAPI-04, 60 min",0.51 % ID/g
same,% ID/g Spleen,"+ Blocker Cold FAPI-04, 60 min",0.29 % ID/g and 0.38 % ID/g
same,% ID/g Mean Stomach,30 min,1.52 % ID/g
same,% ID/g Stomach,30 min,1.84 % ID/g and 1.21 % ID/g
same,% ID/g Mean Stomach,60 min,1.68 % ID/g
same,% ID/g Stomach,60 min,1.68 % ID/g and 1.57 % ID/g
same,% ID/g Mean Stomach,"+ Blocker Cold FAPI-04, 60 min",0.34 % ID/g
same,% ID/g Stomach,"+ Blocker Cold FAPI-04, 60 min",0.28 % ID/g and 0.40 % ID/g
same,% ID/g Mean Tumor,30 min,3.11 % ID/g
same,% ID/g Tumor,30 min,2.90 % ID/g and 3.32 % ID/g
same,% ID/g Mean Tumor,60 min,6.20 % ID/g
same,% ID/g Tumor,60 min,5.22 % ID/g and 7.17 % ID/g
same,% ID/g Mean Tumor,"+ Blocker Cold FAPI-04, 60 min",1.04 % ID/g
same,% ID/g Tumor,"+ Blocker Cold FAPI-04, 60 min",0.89 % ID/g and 1.19 % ID/g
